Laboratory results reported in patent US20230128889A1, “REL/RELA/SPOT SMALL MOLECULES MODULATORS AND SCREENING METHODS” (priority 2020, published 2023).

What was measured:
Rel synthetase (ST) = experiment: Inhibition of Rel synthetase activity: (p)ppGpp production from GDP or GTP and radioactive ATP, TLC; assay type: biochemical; settings: enzyme with GDP or GTP and radioactive ATP, absence or presence of compound
Experimental: (§1) As indicated above, the “Yes/No” in the 5th and 6th columns of TABLES A to F indicates whether there is, or respectively is not an inhibition of the synthetase (ST) and/or hydrolase (HD) activity. […] The action of a candidate compound is evaluated based on its effect on the production of (p)ppGpp. Therefore, in order to assess the potential influence of a candidate compound on synthesis activity, the enzyme was mixed with GDP or GTP and radioactive ATP to produce (p)ppGpp in absence or presence of the candidate compound. Subsequently, the reaction is developed by thin layer chromatography (TLC). In an alternative assay that enables determining the effect of a compound on the hydrolysis activity, radioactive (p)ppGpp is incubated with the enzyme and any decrease of the (p)ppGpp spot on TLC is evaluated when the assay is conducted in presence of the compound and compared to control conditions where no candidate compound is added during incubation.

Rel hydrolase (HD) = experiment: Inhibition of Rel hydrolase activity: decrease of radioactive (p)ppGpp spot on TLC; assay type: biochemical; settings: radioactive (p)ppGpp incubated with enzyme, with vs without compound
Experimental: as §1

Compound	ST (inhibition of the synthetase activity) (Rel synthetase (ST))	HD (inhibition of the hydrolase activity) (Rel hydrolase (HD))
Cc1c(CC(=O)O)c(=O)oc2cc(O)cc(O)c12 [Compound 1]	No	Yes
O=C(O)CNS(=O)(=O)c1ccc2c(c1)NC(=O)CS2 [Compound 3]	No	Yes
O=C(O)CC(CNC(=O)CCn1nnc2ccccc2c1=O)c1ccc(Cl)cc1 (centres unmarked) [Compound 4]	No	Yes
O=[N+]([O-])c1cccc(CN2CCN(S(=O)(=O)c3ccc4ccccc4c3)CC2)c1 [Compound 5]	No	Yes
O=C(O)C1Cc2ccccc2CN1C(=O)Cn1nnc2ccccc21 (centres unmarked) [Compound 6]	No	Yes
O=C1CCc2cc(-c3csc(NC(=O)c4cccc([N+](=O)[O-])c4)n3)ccc2N1 [Compound 7]	No	Yes
O=C(COc1ccc2ccccc2c1)N1N=C2/C(=C/c3cccc([N+](=O)[O-])c3)CCCC2C1c1cccc([N+](=O)[O-])c1 (centres unmarked) [Compound 8]	No	Yes
O=C(O)C[C@H](NC(=O)COc1ccc2nc3n(c(=O)c2c1)CCC3)C(=O)O [Compound 9]	no	yes
Cc1c(Cc2ccccc2)c(=O)oc2cc(OCC(=O)O)ccc12 [Compound 10]	Yes	No
Cc1cc(OCC(=O)O)c2c(C)c(Cc3ccccc3)c(=O)oc2c1 [Compound 11]	Yes	No
COc1ccc(-c2cc3ccc(OCc4nnn[nH]4)cc3oc2=O)cc1 [Compound 12]	Yes	No
O=c1oc2cc(OCc3nnn[nH]3)ccc2cc1-c1ccccc1 [Compound 13]	Yes	No
O=c1oc2cc(OCc3nnn[nH]3)ccc2cc1-c1ccc(F)cc1 [Compound 14]	Yes	No
Cc1c(Cc2ccccc2)c(=O)oc2cc(OCc3ccc(C(=O)O)cc3)ccc12 [Compound 15]	Yes	No
CCCCCCc1c(C)c2ccc(OCc3nnn[nH]3)cc2oc1=O [Compound 16]	Yes	Yes
Cc1cc(CCc2nnn[nH]2)c2c(C)c(Cc3ccccc3)c(=O)oc2c1 [Compound 17]	Yes	Yes
Cc1c(Cc2ccccc2)c(=O)oc2cc(OCc3nnn[nH]3)ccc12 [Compound 18]	Yes	Yes
Cc1c(Cc2ccccc2)c(=O)oc2cc(OCc3nnn[nH]3)c(Cl)cc12 [Compound 19]	Yes	Yes
O=c1oc2cc(OCc3nnn[nH]3)ccc2cc1-c1ccc(Cl)cc1 [Compound 20]	Yes	Yes
O=c1oc2cc(OCc3nnn[nH]3)ccc2cc1-c1ccc2ccccc2c1 [Compound 21]	Yes	Yes
O=C(Nc1nnn[nH]1)c1ccc2c(Br)cccc2c1 [Compound 22]	Yes	Yes
CC(NC(=O)c1cc([N+](=O)[O-])c[nH]1)c1ccc2ccccc2c1 (centres unmarked) [Compound 23]	Yes	Yes
O=C1N/C(=N\N=C\c2cccc3ccccc23)SC1Cc1ccccc1[N+](=O)[O-] (centres unmarked) [Compound 24]	Yes	Yes
O=C(O)CCNS(=O)(=O)c1ccc2[nH]c(=O)[nH]c2c1 [Compound 25]	No	Yes
CC(Nc1ccc(F)cc1[N+](=O)[O-])c1ccc2[nH]c(=O)[nH]c2c1 (centres unmarked) [Compound 26]	No	Yes
O=C(O)CCS(=O)(=O)c1ccc2[nH]c(=O)oc2c1 [Compound 27]	No	Yes
Cc1nc2cc(CC(=O)N[C@@H]3COCC[C@@H]3OCC(=O)O)ccc2[nH]1 [Compound 28]	No	Yes
COc1ccc2[nH]cc(CCNC(=O)c3nccnc3C(=O)O)c2c1 [Compound 29]	No	Yes

Compound	ST (inhibition of the synthetase activity) (Rel synthetase (ST))	HD (inhibition of the hydrolase activity) (Rel hydrolase (HD))
O=C(c1cc(-c2cccc(Cl)c2)[nH]n1)N1CCc2ccc([N+](=O)[O-])cc21 [Compound 30]	No	Yes
O=C(O)/C=C/c1cccc(NC2C(=O)Nc3ccccc32)c1 (centres unmarked) [Compound 31]	No	Yes
O=C(Nc1nnn[nH]1)c1cc(-c2ccc3c(c2)CCO3)[nH]n1 [Compound 32]	No	Yes
O=C1c2ccccc2C(=O)N1CCCc1nc(-c2cccc([N+](=O)[O-])c2)no1 [Compound 33]	No	Yes
O=C(O)CCCC(=O)Nc1cc2[nH]c(=O)[nH]c2cc1N1CCCC1 [Compound 35]	no	yes
O=C(CC(C(=O)O)C1CCCO1)NCCc1ccc2c(c1)OCO2 (centres unmarked) [Compound 36]	no	yes
COc1ccc(C=C2C(=O)Nc3ccc(C(=O)O)cc32)cc1 [Compound 37]	Yes	No
O=C1Nc2ccccc2/C1=N\c1ccc(O)c([N+](=O)[O-])c1 [Compound 38]	Yes	No
O=C1Nc2ccccc2/C1=N\c1cccc([N+](=O)[O-])c1 [Compound 39]	Yes	No
O=C(O)Cn1cc(/C=C2/C(=O)Nc3ccccc32)c2ccccc21 [Compound 40]	Yes	No
O=C1Nc2ccccc2/C1=N/N=C/c1ccc(-c2ccccc2[N+](=O)[O-])o1 [Compound 41]	Yes	Yes
O=C(O)C1CCN(S(=O)(=O)c2ccc3[nH]c(=O)oc3c2)CC1 [Compound 42]	Yes	Yes
O=C(Nc1ccc(-n2cnc3ccccc32)nc1)c1ccc([N+](=O)[O-])o1 [Compound 43]	Yes	Yes
O=C(O)CCC(=Cc1ccc(OCC(=O)O)cc1)c1nc2ccccc2s1 [Compound 44]	Yes	Yes
O=C1OCc2ccc(-c3ccc(/C=N/Nc4nnn[nH]4)o3)cc21 [Compound 45]	Yes	Yes
CSCCC(NS(=O)(=O)c1ccc2c3c(cccc13)C(=O)N2)C(=O)O (centres unmarked) [Compound 47]	Yes	Yes
O=C(O)CNS(=O)(=O)c1ccc2c3c(cccc13)C(=O)N2 [Compound 48]	Yes	Yes
O=C(O)c1cc(NS(=O)(=O)c2ccc3c4c(cccc24)C(=O)N3)cnc1Cl [Compound 49]	Yes	Yes
O=C1c2cccc3cc([N+](=O)[O-])cc(c23)C(=O)N1O [Compound 50]	Yes	No
O=C(O)CCNS(=O)(=O)c1cc2c3c(cccc3c1)C(=O)NC2=O [Compound 51]	Yes	Yes
Cn1c(=O)[nH]c(=O)c2[nH]c(SCC(=O)O)nc21 [Compound 52]	No	Yes
Cc1c(C(=O)N(CCC(=O)O)CC2CCCO2)sc2ncn(C)c(=O)c12 (centres unmarked) [Compound 53]	No	Yes
Cc1[nH]c2ccnn2c(=O)c1CC(=O)N(CCC(=O)O)CC1CCCO1 (centres unmarked) [Compound 54]	No	Yes
O=C(O)c1cccc(Nc2ncnc3[nH]cnc23)c1 [Compound 55]	No	Yes
Cc1nnc2ccc(N3CCN(C(=O)Nc4ccccc4[N+](=O)[O-])CC3)nn12 [Compound 56]	No	Yes
Cc1ccc(-n2cnnn2)cc1OCc1nnn[nH]1 [Compound 57]	No	Yes
Fc1cccc(-c2nnn(Cc3nnn[nH]3)n2)c1 [Compound 58]	No	Yes
